Reference: publication PMC5979480 (International Journal of Molecular Sciences, 2018)

How the values were obtained:
[1] = in vivo; cited from earlier work
[2] = test system: 6-OHDA hemi-parkinsonian (PD) rats; test: Open-field test (locomotor and anxiety-like behavior); type: in vivo, Sprague-Dawley rats; details: 15 nmol/kg/day s.c. pump
Procedure: (§1) Modified surgical procedures were based on our previously described methods. Under Zoletil-Rumpun (10 mg/kg: 2 mg/kg, i.p.) anesthesia, SD rats were placed in a stereotaxic frame with the nose bar positioned 3.3 mm below the interaural line. Unilateral 6-hydroxydopamine (6-OHDA, 8 μg dissolved in 0.9% saline with 0.02% ascorbic acid) was injected for DA lesions into the left median forebrain bundle (MFB, coordinates: anteroposterior [49, 53], −4.3 mm; lateral (L), 1.6 mm from bregma; ventral (V), 8.2 mm from the dura).
In addition to its well-known motor manifestations, PD is also known to elicit neuropsychiatric disorders such as anxiety. We thus used open field measurements in the lesioned animals, as well as in intact animals, to evaluate not only general motor activity but also anxiety-related exploratory activity. Rats were first habituated to an open field Plexiglas arena (60 × 60 × 100 cm) for 10 min at day 4 and 5 post-lesion. At day 6 post-lesion, locomotor activity and anxiety-like behavior were monitored for 10 min using open field tests. The rat behaviors were recorded using an EthoVision system. Total distance, velocity, and freezing times in the open-field were considered general locomotor activities. The number and retention times in the central zone of the open field were measured as anxiety-like behaviors. The center of the open field was defined as a 30 × 30 cm^2 in the geometric center of the arena.

[3] = test system: 6-OHDA hemi-parkinsonian (PD) rats; test: Apomorphine-induced contralateral rotation; type: in vivo, Sprague-Dawley rats
Procedure: as §1
Apomorphine (0.5 mg/kg in 0.1% ascorbic acid, s.c.)-induced contralateral rotations were recorded using a digital video camera to count the number of rotations for 60 min at weekly intervals up to 4 weeks post-lesion (i.e., 7, 14, 21, and 28 days post-lesion) using the same test conditions. The net number of rotations was calculated (contralateral minus ipsilateral full turns). In unilaterally 6-OHDA lesioned animals, apomorphine-induced contralateral rotation is a well-established correlate of dopamine depletion, with rotation levels seen here indicative of an 80–90% loss.

TBI injury in rats = details: 38.5 µg/kg/day GIP (equivalent to 7.8 nmol/kg/day); cited from earlier work

For Exenatide, the “Share of plasma levels reaching the brain” value [1] is listed as about 2%.
In the case of `CC[C@H](C)[C@H](NC(=O)[C@H](CO)NC(=O)[C@H](Cc1ccc(O)cc1)NC(=O)[C@H](CC(=O)O)NC(=O)[C@H](CO)NC(=O)[C@@H](NC(=O)[C@H](Cc1ccccc1)NC(=O)[C@@H](NC(=O)CNC(=O)[C@H](CCC(=O)O)NC(=O)[C@H](C)NC(=O)[C@@H](N)Cc1ccc(O)cc1)[C@@H](C)O)[C@@H](C)CC)C(=O)N[C@@H](C)C(=O)N[C@@H](CCSC)C(=O)N[C@@H](CC(=O)O)C(=O)N[C@@H](CCCCN)C(=O)N[C@H](C(=O)N[C@@H](Cc1c[nH]cn1)C(=O)N[C@@H](CCC(N)=O)C(=O)N[C@@H](CCC(N)=O)C(=O)N[C@@H](CC(=O)O)C(=O)N[C@@H](Cc1ccccc1)C(=O)N[C@H](C(=O)N[C@@H](CC(N)=O)C(=O)N[C@@H](Cc1c[nH]c2ccccc12)C(=O)N[C@@H](CC(C)C)C(=O)N[C@@H](CC(C)C)C(=O)N[C@@H](C)C(=O)N[C@@H](CCC(N)=O)C(=O)N[C@@H](CCCCN)C(=O)NCC(=O)N[C@@H](CCCCN)C(=O)N[C@@H](CCCCN)C(=O)N[C@@H](CC(N)=O)C(=O)N[C@@H](CC(=O)O)C(=O)N[C@@H](Cc1c[nH]c2ccccc12)C(=O)N[C@@H](CCCCN)C(=O)N[C@@H](Cc1c[nH]cn1)C(=O)N[C@@H](CC(N)=O)C(=O)N[C@H](C(=O)N[C@H](C(=O)N[C@@H](CCC(N)=O)C(=O)O)[C@@H](C)O)[C@@H](C)CC)C(C)C)[C@@H](C)CC` [GIP, glucose-dependent insulinotropic polypeptide], the “Open-field locomotor behavior (total distance moved, velocity, freezing time)” value ([2]; 10 min open field post-lesion, GIP vs saline p = 0.031, 0.021, 0.034, saline n = 8, GIP15 n = 5, naïve n = 6) is reported as “improved locomotor behavior to a level similar to the naïve group”, the “Number of entries into the central zone, GIP vs saline” value ([2]; 10 min open field, p = 0.008) is reported as “significantly higher” and the “Retention times in the central zone, GIP vs saline” value ([2]; 10 min open field, p = 0.218) is reported as “trended to improve this deficit”. The “Sensitization (progressive increase in apomorphine-induced rotations with repeated weekly tests)” value ([3]; 15 nmol/kg/day GIP, weekly tests up to 4 weeks post-lesion, time effect GIP p = 0.940) was “not seen”, the “Apomorphine-induced rotation, GIP vs saline” value ([3]; 15 nmol/kg/day s.c. pump for 2 weeks from 2 days pre-lesion, apomorphine 0.5 mg/kg s.c., 60 min, week 3 (p = 0.042) and week 4 (p = 0.019) post-6-OHDA, saline n = 9, GIP n = 10) was “statistically significant differences” and the “Initial levels of apomorphine-induced rotations” value ([3]; apomorphine 0.5 mg/kg, both lesioned groups (saline and GIP 15 nmol/kg/day)) was “over 400”. The “Effect on TBI injury” value (TBI injury in rats) was “effectively mitigated TBI injury”.
